ChEMBL document CHEMBL6114980, “Single or double lipid-modified ultra-short antimicrobial peptides for treating infections caused by resistant bacteria” (Eur J Med Chem, 2025)
Activity calls are given as the source filed them. The calls are words filed in the database; no cut-off is given here. Peptide text beside a SMILES is read from it. * marks the point of attachment. Lauroyl = CCCCCCCCCCCC(=O)*; Octanoyl = CCCCCCCC(=O)*

Columns and labels:
[1] = test system: Cell membrane; assay: Induction of outer membrane permeabilization in Escherichia coli assessed as increase in fluorescence intensity at 0.5 times MIC measured for 10 mins by fluorescence based NPN uptake assay
[2] = test system: Staphylococcus aureus; assay: Antibacterial activity against Staphylococcus aureus assessed as reduction in survival bacterial growth in presence of MgCl2 measured after 18 to 24 hrs (reference value: 4 microM); assay type: functional; settings: time 18-24 hrs
[3] = test system: Staphylococcus aureus; assay: Additive antibacterial activity against methicillin-resistant Staphylococcus aureus 113 assessed as fractional inhibitory in presence of polymyxin B by checker board assay; assay type: functional
[4] = Acute toxicity in male BALB/c mouse assessed effect on edema in spleen at 100 to 130 mg/kg, ip measured after 7 days by H and E staining based analysis; assay type: organism-based; settings: in vivo, 168 h, dose 100-130 mg/kg, time 7 day
[5] = test system: Escherichia coli; assay: Antibacterial activity against Escherichia coli 25922 at sub-MIC concentration measured after 15 passages in presence of rifampin; assay type: functional, organism-based
[6] = test system: Escherichia coli; assay: Antibacterial activity against Escherichia coli assessed as reduction in survival bacterial growth in presence of MgCl2 measured after 18 to 24 hrs (reference value: 8 microM); assay type: functional; settings: time 18-24 hrs
[7] = Acute toxicity in male BALB/c mouse assessed increase in interstitial space at 100 to 130 mg/kg, ip measured after 7 days by H and E staining based analysis; assay type: organism-based; settings: in vivo, 168 h, dose 100-130 mg/kg, time 7 day
[8] = Acute toxicity in male BALB/c mouse assessed distorted alveolar morphology at 100 to 130 mg/kg, ip measured after 7 days by H and E staining based analysis; assay type: organism-based; settings: in vivo, 168 h, dose 100-130 mg/kg, time 7 day
[9] = Acute toxicity in male BALB/c mouse assessed congestion at 100 to 130 mg/kg, ip measured after 7 days by H and E staining based analysis; assay type: organism-based; settings: in vivo, 168 h, dose 100-130 mg/kg, time 7 day
[10] = test system: Staphylococcus aureus; assay: Additive antibacterial activity against Staphylococcus aureus 25923 assessed as fractional inhibitory in presence of cephalothin by checker board assay; assay type: functional
[11] = test system: Staphylococcus aureus; assay: Antibacterial activity against Staphylococcus aureus assessed as reduction in survival bacterial growth in presence of NaCl measured after 18 to 24 hrs (reference value: 4 microM); assay type: functional; settings: time 18-24 hrs
[12] = test system: Escherichia coli; assay: Antibacterial activity against Escherichia coli assessed as reduction in survival bacterial growth in presence of NaCl measured after 18 to 24 hrs (reference value: 8 microM); assay type: functional; settings: time 18-24 hrs
[13] = test system: Staphylococcus aureus; assay: Antibacterial activity against Staphylococcus aureus assessed as reduction in survival bacterial growth in presence of ZnCl2 measured after 18 to 24 hrs (reference value: 4 microM); assay type: functional; settings: time 18-24 hrs
[14] = test system: Staphylococcus aureus; assay: Antibacterial activity against Staphylococcus aureus assessed as reduction in survival bacterial growth in presence of KCl measured after 18 to 24 hrs (reference value: 4 microM); assay type: functional; settings: time 18-24 hrs
[15] = Acute toxicity in male BALB/c mouse assessed effect on edema in heart at 100 to 130 mg/kg, ip measured after 7 days by H and E staining based analysis; assay type: organism-based; settings: in vivo, 168 h, dose 100-130 mg/kg, time 7 day
[16] = test system: Staphylococcus aureus; assay: Induction of morphological changes in Staphylococcus aureus assessed as cell adhesion at 2 times MIC measured after 120 mins by SEM analysis; assay type: functional, organism-based
[17] = Acute toxicity in male BALB/c mouse assessed increase in inflammatory cell infiltration at 100 to 130 mg/kg, ip measured after 7 days by H and E staining based analysis; assay type: organism-based; settings: in vivo, 168 h, dose 100-130 mg/kg, time 7 day
[18] = test system: Staphylococcus aureus; assay: Antibacterial activity against Staphylococcus aureus assessed as reduction in survival bacterial growth in presence of FeCl3 measured after 18 to 24 hrs (reference value: 4 microM); assay type: functional; settings: time 18-24 hrs
[19] = test system: Escherichia coli; assay: Antibacterial activity against Escherichia coli assessed as reduction in survival bacterial growth in presence <=0.2 ug/ml of trypsin measured after1 hr by absorbance based analysis; assay type: functional, organism-based; settings: time 1.0 hrs
[20] = test system: Staphylococcus aureus; assay: Antibacterial activity against Staphylococcus aureus assessed as reduction in survival bacterial growth in presence of <= 2 ug/ml trypsin measured after1 hr by absorbance based analysis; assay type: functional, organism-based; settings: time 1.0 hrs
[21] = test system: Staphylococcus aureus; assay: Synergistic antibacterial activity against methicillin-resistant Staphylococcus aureus assessed as fractional inhibitory in presence of streptomycin by checker board assay; assay type: functional
[22] = Acute toxicity in male BALB/c mouse assessed inflammatory cell infiltration in liver at 100 to 130 mg/kg, ip measured after 7 days by H and E staining based analysis; assay type: organism-based; settings: in vivo, 168 h, dose 100-130 mg/kg, time 7 day
[23] = test system: Staphylococcus aureus; assay: Additive antibacterial activity against methicillin-resistant Staphylococcus aureus assessed as fractional inhibitory in presence of streptomycin by checker board assay; assay type: functional
[24] = test system: Cell membrane; assay: Induction of cytoplasmic membrane depolarization in Staphylococcus aureus assessed as increase in fluorescence intensity at 0.5 to 4 times MIC measured for 1 mins by DiSC3-5 dye based fluorescence assay
[25] = test system: Staphylococcus aureus; assay: Antibacterial activity against Staphylococcus aureus assessed as reduction in survival bacterial growth in presence of Mgcl2 measured after 18 to 24 hrs (reference value: 8 microM); assay type: functional; settings: time 18-24 hrs
[26] = test system: Staphylococcus aureus; assay: Antibacterial activity against Staphylococcus aureus assessed as reduction in survival bacterial growth in presence of NaCl measured after 18 to 24 hrs (reference value: 8 microM); assay type: functional; settings: time 18-24 hrs
[27] = test system: Staphylococcus aureus; assay: Antibacterial activity against Staphylococcus aureus assessed as reduction in survival bacterial growth in presence of ZnCl2 measured after 18 to 24 hrs (reference value: 8 microM); assay type: functional; settings: time 18-24 hrs
[28] = test system: Cell membrane; assay: Induction of cytoplasmic membrane depolarization in Escherichia coli assessed as increase in fluorescence intensity at 0.5 to 2 times MIC measured for 10 mins by DiSC3-5 dye based fluorescence assay
[29] = Acute toxicity in male BALB/c mouse assessed inflammatory cell infiltration in spleen at 100 to 130 mg/kg, ip measured after 7 days by H and E staining based analysis; assay type: organism-based; settings: in vivo, 168 h, dose 100-130 mg/kg, time 7 day
[30] = Acute toxicity in male BALB/c mouse assessed inflammatory cell infiltration in lung at 100 to 130 mg/kg, ip measured after 7 days by H and E staining based analysis; assay type: organism-based; settings: in vivo, 168 h, dose 100-130 mg/kg, time 7 day
[31] = test system: Staphylococcus aureus; assay: Synergistic antibacterial activity against Staphylococcus aureus 25923 assessed as fractional inhibitory in presence of cephalothin by checker board assay; assay type: functional
[32] = Acute toxicity in male BALB/c mouse assessed partial hepatocyte necrosis at 100 to 130 mg/kg, ip measured after 7 days by H and E staining based analysis; assay type: organism-based; settings: in vivo, 168 h, dose 100-130 mg/kg, time 7 day
[33] = test system: Staphylococcus aureus; assay: Synergistic antibacterial activity against methicillin-resistant Staphylococcus aureus 113 assessed as fractional inhibitory in presence of polymyxin B by checker board assay; assay type: functional
[34] = test system: Staphylococcus aureus; assay: Antibacterial activity against Staphylococcus aureus assessed as reduction in survival bacterial growth in presence of <=0.2 ug/ml trypsin measured after1 hr by absorbance based analysis; assay type: functional, organism-based; settings: time 1.0 hrs

## CCCCCCCCCCCC(=O)N[C@@H](CCCCN)C(=O)N[C@@H](CCCCN)C(=O)N[C@@H](Cc1c[nH]c2ccccc12)C(=O)N[C@@H](Cc1c[nH]c2ccccc12)C(N)=O (Lauroyl-KKWW-NH2)
[1]
  Activity: Active
[2]
  MIC: 4 µM
[3]
  fractional inhibitory concentration index (FICI): 0.625
[4]
  Activity: Non-toxic
[5]
  Activity: Active
[6]
  MIC: 8 µM
[7]
  Activity: Toxic
[8]
  Activity: Toxic
[9]
  Activity: Toxic
[10]
  fractional inhibitory concentration index (FICI): 0.562
[11]
  MIC: 4 µM
[12]
  MIC: 8 µM
[13]
  MIC: 4 µM
[14]
  MIC: 4 µM
[15]
  Activity: Non-toxic
[16]
  Activity: Active
[17]
  Activity: Toxic
[18]
  MIC: 2 µM
[19]
  Activity: Active
[20]
  Activity: Active
[21]
  fractional inhibitory concentration index (FICI): 0.375

## CCCCCCCC(=O)NCCCC[C@H](NC(=O)CCCCCCC)C(=O)N[C@@H](CCCCN)C(=O)N[C@@H](CCCCN)C(=O)N[C@@H](Cc1c[nH]c2ccccc12)C(=O)N[C@@H](Cc1c[nH]c2ccccc12)C(N)=O (Octanoyl-K(Octanoyl)KKWW-NH2)
[22]
  Activity: Non-toxic
[23]
  fractional inhibitory concentration index (FICI): 0.562
[24]
  Activity: Active
[25]
  MIC: 8 µM
[26]
  MIC: 8 µM
[27]
  MIC: 8 µM
[28]
  Activity: Active; Compound Showed Similar Effect As Quality Control Polymyxin B
[29]
  Activity: Non-toxic
[30]
  Activity: Non-toxic
[31]
  fractional inhibitory concentration index (FICI): 0.5
[32]
  Activity: Non-toxic
[33]
  fractional inhibitory concentration index (FICI): 0.312
[34]
  Activity: Active
